# Assay results from US7635572B2, “Methods for conducting assays for enzyme activity on protein microarrays” (Life Technologies Corporation, priority 2004, dated 2009).
# Tests used:
# Test in all cases: Further analysis of a plurality of inhibitors and a plurality of kinases on microarray (Example IX, Table 5);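 note: inhibition of each kinase by the inhibitors is given as a qualitative level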;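 for Inhibition level, DAPK2: level 0 no or unclear inhibition to Level 2 substantial inhibition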;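 for Inhibition level, DYRK1A: level 0 none or unclear Level 1 marginal Level 2 substantial inhibition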;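 for Inhibition level, DYRK2: level 0 none or unclear Level 1 marginal Level 2 substantial inhibition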;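 for Inhibition level, MAP3K4: level 0 no or unclear inhibition to Level 2 substantial inhibition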;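 for Inhibition level, MAP3K7: level 0 none or unclear then 1 little or marginal then 2 substantial inhibition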;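 for Inhibition level, STK13: level 0 no or unclear inhibition to Level 2 substantial inhibition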
# Assay type in all cases: biochemical
# [1] = target: plurality of kinases (Table 5) (Homo sapiens, UniProt O75716); conditions: plate C3
# [2] = target: T1, plurality of kinases (Table 5) (Homo sapiens, UniProt Q9UQB9); conditions: plate G11; inhibitor 100 uM
# T1 sequence (Q9UQB9 1-309): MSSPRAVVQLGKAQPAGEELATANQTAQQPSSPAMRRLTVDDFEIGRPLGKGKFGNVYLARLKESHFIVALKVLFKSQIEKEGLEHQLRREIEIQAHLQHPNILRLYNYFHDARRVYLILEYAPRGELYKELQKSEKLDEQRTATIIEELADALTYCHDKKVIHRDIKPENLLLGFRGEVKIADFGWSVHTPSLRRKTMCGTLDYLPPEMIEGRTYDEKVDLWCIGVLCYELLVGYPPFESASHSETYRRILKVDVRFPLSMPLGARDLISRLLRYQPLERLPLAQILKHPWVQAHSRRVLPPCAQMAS
# [3] = target: T2, plurality of kinases (Table 5) (Homo sapiens, UniProt O43318); conditions: plate G9
# T2 sequence (O43318 1-606): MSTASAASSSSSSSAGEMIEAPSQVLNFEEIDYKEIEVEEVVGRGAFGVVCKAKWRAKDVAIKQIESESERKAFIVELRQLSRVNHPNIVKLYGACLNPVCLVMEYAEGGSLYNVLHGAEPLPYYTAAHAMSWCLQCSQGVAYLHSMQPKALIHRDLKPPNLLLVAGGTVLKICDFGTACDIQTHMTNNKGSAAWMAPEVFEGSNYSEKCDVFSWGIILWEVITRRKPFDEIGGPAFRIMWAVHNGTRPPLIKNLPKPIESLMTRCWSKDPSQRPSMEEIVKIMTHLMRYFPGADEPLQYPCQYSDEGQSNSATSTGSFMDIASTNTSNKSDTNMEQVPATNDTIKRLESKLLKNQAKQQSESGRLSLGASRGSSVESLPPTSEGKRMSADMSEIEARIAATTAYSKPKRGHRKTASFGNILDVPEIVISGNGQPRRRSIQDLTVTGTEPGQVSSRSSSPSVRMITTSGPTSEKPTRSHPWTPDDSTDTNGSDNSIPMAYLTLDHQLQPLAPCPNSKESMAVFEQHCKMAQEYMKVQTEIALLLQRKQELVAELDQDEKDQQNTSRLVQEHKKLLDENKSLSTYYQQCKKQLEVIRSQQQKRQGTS
# [4] = target: plurality of kinases (Table 5) (Homo sapiens, UniProt Q05655); conditions: plate B2
# [5] = target: plurality of kinases (Table 5) (Homo sapiens, UniProt Q13627); conditions: plate G6
# [6] = target: T3, plurality of kinases (Table 5) (Homo sapiens, UniProt Q9Y616); conditions: plate C9; inhibitor 100 uM
# T3 sequence (Q9Y616 1-596): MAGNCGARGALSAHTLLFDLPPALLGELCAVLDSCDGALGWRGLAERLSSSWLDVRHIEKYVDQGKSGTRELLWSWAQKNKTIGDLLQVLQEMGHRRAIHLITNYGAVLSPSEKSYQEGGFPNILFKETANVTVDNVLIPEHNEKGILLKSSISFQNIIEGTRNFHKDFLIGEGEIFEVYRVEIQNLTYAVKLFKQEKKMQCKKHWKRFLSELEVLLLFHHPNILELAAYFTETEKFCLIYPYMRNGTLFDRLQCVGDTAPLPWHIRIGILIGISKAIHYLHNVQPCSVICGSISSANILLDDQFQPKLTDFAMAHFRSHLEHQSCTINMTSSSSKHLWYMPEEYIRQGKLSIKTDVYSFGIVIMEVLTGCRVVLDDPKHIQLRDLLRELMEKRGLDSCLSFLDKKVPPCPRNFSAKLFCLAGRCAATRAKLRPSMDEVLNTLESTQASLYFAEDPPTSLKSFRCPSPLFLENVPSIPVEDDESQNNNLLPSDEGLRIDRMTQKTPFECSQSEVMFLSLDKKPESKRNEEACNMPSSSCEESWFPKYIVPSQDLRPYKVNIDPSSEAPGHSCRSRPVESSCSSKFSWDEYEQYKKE
# [7] = target: T4, plurality of kinases (Table 5) (Homo sapiens, UniProt Q92630); conditions: plate D11
# T4 sequence (Q92630 1-601): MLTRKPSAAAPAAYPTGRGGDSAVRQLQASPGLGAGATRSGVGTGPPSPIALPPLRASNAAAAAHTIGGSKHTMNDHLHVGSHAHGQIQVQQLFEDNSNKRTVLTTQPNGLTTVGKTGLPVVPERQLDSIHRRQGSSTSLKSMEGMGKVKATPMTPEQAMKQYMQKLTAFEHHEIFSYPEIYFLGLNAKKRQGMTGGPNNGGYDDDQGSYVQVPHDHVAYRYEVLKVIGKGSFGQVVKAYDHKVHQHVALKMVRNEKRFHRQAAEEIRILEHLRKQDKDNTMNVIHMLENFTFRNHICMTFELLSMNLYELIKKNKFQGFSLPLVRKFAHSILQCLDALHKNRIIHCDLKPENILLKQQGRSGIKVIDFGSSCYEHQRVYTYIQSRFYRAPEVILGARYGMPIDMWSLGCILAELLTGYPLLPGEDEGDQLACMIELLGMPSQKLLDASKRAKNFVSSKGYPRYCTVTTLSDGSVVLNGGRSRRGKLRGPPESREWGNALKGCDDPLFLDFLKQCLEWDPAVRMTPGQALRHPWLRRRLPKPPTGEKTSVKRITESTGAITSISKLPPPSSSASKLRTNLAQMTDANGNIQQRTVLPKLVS
# [8] = target: plurality of kinases (Table 5) (Homo sapiens, UniProt Q9UIK4); conditions: plate H3
# [9] = target: plurality of kinases (Table 5) (Homo sapiens, UniProt Q9Y6R4); conditions: plate E7; inhibitor 100 uM
# [10] = target: plurality of kinases (Table 5) (Homo sapiens, UniProt P07949); conditions: plate B7
# plurality of kinases (Table 5) (Homo sapiens, UniProt P07949), sequence (P07949 29-1114): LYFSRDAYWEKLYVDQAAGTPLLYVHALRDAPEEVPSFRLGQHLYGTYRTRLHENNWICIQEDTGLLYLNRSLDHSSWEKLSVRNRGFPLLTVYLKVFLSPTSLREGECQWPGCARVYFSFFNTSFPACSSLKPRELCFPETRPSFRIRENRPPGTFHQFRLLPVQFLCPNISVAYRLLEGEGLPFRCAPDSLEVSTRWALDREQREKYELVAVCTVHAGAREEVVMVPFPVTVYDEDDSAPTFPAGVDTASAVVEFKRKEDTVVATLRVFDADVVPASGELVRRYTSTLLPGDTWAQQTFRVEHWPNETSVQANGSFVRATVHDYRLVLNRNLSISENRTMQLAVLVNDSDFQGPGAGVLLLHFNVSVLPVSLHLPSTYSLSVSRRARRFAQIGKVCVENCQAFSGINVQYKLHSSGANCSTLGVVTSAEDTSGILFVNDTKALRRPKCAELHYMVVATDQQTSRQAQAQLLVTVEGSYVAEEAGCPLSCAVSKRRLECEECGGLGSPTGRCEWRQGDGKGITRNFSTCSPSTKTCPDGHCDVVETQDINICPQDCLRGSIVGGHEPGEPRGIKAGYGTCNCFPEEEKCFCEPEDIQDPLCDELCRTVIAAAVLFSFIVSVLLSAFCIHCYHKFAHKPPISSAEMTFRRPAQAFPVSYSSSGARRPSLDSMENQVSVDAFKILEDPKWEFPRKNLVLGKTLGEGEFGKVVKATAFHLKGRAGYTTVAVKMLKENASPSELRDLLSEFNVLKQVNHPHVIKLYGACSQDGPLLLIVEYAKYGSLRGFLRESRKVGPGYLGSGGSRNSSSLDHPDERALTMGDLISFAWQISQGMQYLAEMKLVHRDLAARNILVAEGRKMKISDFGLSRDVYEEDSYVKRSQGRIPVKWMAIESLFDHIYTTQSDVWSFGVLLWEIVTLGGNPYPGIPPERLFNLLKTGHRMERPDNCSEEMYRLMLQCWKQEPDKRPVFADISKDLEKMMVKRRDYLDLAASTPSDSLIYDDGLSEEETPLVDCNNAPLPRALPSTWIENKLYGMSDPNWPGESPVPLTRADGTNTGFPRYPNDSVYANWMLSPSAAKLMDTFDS
# plurality of kinases (Table 5) (Homo sapiens, UniProt Q9UIK4), sequence (Q9UIK4 whole entry): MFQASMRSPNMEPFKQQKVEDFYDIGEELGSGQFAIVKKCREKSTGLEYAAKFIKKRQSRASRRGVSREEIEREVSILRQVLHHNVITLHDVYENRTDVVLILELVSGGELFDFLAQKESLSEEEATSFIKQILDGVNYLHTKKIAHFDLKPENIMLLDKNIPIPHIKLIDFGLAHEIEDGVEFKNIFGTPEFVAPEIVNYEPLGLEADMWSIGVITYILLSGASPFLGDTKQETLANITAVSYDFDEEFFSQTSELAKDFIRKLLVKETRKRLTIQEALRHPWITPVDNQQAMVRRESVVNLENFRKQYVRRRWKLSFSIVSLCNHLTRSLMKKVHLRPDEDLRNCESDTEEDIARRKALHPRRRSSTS
# plurality of kinases (Table 5) (Homo sapiens, UniProt Q9Y6R4), sequence (Q9Y6R4 whole entry): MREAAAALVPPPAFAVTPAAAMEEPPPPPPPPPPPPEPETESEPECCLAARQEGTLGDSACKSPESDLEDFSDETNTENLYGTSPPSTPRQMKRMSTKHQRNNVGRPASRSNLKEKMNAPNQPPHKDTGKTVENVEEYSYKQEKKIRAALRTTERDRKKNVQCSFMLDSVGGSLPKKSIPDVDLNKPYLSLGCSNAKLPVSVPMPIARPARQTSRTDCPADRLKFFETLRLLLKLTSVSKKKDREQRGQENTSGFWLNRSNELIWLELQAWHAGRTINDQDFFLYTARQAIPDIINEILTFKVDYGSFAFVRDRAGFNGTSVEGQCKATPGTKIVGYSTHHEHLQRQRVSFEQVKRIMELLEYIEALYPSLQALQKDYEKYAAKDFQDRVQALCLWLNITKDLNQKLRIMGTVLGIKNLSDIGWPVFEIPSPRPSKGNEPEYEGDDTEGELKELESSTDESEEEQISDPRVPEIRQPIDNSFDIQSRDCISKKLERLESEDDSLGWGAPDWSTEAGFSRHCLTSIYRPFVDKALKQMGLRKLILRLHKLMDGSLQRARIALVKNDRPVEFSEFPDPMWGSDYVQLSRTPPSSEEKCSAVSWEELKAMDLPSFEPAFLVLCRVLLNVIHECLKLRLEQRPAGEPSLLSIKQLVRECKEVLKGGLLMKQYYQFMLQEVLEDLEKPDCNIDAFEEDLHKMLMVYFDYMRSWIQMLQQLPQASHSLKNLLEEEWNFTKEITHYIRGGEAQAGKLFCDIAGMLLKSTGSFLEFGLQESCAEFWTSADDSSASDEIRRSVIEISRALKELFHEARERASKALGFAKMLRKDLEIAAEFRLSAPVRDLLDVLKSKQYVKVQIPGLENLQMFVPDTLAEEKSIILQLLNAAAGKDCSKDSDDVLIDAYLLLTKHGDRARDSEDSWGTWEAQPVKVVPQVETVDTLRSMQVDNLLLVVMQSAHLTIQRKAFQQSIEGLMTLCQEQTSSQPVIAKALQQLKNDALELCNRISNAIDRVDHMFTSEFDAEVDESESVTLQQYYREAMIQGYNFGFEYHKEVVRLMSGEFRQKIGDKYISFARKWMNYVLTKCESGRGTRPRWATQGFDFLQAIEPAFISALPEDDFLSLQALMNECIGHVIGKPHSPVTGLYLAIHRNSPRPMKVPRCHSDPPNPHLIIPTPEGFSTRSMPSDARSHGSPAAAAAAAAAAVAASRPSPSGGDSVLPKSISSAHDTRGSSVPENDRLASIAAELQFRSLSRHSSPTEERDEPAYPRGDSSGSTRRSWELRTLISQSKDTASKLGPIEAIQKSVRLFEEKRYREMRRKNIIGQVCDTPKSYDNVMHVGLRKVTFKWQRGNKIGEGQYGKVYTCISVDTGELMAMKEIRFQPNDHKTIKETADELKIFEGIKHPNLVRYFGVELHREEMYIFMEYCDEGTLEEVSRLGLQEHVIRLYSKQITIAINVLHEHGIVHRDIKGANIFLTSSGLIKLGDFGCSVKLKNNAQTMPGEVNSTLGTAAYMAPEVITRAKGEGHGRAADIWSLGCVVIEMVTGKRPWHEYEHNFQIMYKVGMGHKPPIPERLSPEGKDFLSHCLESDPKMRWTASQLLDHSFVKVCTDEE
# plurality of kinases (Table 5) (Homo sapiens, UniProt O75716), sequence (O75716 whole entry): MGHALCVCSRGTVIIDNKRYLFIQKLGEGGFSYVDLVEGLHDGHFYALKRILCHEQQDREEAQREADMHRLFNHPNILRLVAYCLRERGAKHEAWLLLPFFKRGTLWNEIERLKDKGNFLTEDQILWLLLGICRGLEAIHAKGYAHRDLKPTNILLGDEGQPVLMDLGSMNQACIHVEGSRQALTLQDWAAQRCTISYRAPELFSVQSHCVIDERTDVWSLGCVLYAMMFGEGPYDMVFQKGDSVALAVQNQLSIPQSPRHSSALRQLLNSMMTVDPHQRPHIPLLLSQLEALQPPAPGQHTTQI
# plurality of kinases (Table 5) (Homo sapiens, UniProt Q05655), sequence (Q05655 whole entry): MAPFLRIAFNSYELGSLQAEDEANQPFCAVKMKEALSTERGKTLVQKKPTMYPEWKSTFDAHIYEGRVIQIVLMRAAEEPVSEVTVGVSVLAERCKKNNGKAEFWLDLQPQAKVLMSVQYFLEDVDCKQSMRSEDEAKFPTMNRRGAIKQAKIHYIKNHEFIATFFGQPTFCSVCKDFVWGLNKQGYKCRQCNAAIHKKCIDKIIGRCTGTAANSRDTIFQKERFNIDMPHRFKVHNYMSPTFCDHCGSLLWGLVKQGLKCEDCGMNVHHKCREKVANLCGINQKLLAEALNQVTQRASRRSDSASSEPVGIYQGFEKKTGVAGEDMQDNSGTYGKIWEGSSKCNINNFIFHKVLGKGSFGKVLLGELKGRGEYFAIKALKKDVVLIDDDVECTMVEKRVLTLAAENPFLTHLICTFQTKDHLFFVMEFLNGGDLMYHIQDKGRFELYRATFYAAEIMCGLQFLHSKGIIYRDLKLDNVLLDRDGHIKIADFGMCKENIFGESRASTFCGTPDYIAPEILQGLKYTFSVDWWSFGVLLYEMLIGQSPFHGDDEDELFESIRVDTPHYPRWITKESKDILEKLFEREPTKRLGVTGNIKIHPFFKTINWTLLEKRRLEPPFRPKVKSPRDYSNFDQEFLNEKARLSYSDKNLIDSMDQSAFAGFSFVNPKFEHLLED
structure (smiles),measurement,setting,value
COc1cc2ncnc(Nc3cccc(Cl)c3)c2cc1OC [AG 1478],"Inhibition level, STK16",[1]; inhibitor 100 uM,0
same,"Inhibition level, STK13",[2],1
same,"Inhibition level, MAP3K7",[3]; inhibitor 100 uM,0
same,"Inhibition level, PRKCD",[4]; inhibitor 100 uM,0
same,"Inhibition level, DYRK1A",[5]; inhibitor 100 uM,0
same,"Inhibition level, IRAK3",[6],2
same,"Inhibition level, DYRK2",[7]; inhibitor 100 uM,2
same,"Inhibition level, DAPK2",[8]; inhibitor 100 uM,0
same,"Inhibition level, MAP3K4",[9],1
same,"Inhibition level, RET",[10]; inhibitor 100 uM,2
CC(=O)c1c(O)c(C)c(O)c(Cc2c(O)c3c(c(C(=O)/C=C/c4ccccc4)c2O)OC(C)(C)C=C3)c1O [Rottlerin (Mallotoxin)],"Inhibition level, STK16",[1]; inhibitor 100 uM,0
same,"Inhibition level, STK13",[2],1
same,"Inhibition level, MAP3K7",[3]; inhibitor 100 uM,2
same,"Inhibition level, PRKCD",[4]; inhibitor 100 uM,0
same,"Inhibition level, DYRK1A",[5]; inhibitor 100 uM,0
same,"Inhibition level, IRAK3",[6],2
same,"Inhibition level, DYRK2",[7]; inhibitor 100 uM,2
same,"Inhibition level, DAPK2",[8]; inhibitor 100 uM,1
same,"Inhibition level, MAP3K4",[9],1
same,"Inhibition level, RET",[10]; inhibitor 100 uM,0
CN[C@@H]1C[C@H]2O[C@@](C)([C@@H]1OC)n1c3ccccc3c3c4c(c5c6ccccc6n2c5c31)C(=O)NC4 [Staurosporine],"Inhibition level, STK16",[1]; Staurosporine 21.5 uM,2
same,"Inhibition level, DAPK2","[8]; Staurosporine, conc. not given",2
N#C/C(=C/c1ccc(O)c(O)c1)C(=O)NCc1ccccc1 [AG 490],"Inhibition level, STK16",[1]; inhibitor 100 uM,0
same,"Inhibition level, STK13",[2],2
same,"Inhibition level, MAP3K7",[3]; inhibitor 100 uM,0
same,"Inhibition level, PRKCD",[4]; inhibitor 100 uM,0
same,"Inhibition level, DYRK1A",[5]; inhibitor 100 uM,2
same,"Inhibition level, IRAK3",[6],0
same,"Inhibition level, DYRK2",[7]; inhibitor 100 uM,2
same,"Inhibition level, DAPK2",[8]; inhibitor 100 uM,2
same,"Inhibition level, MAP3K4",[9],2
same,"Inhibition level, RET",[10]; inhibitor 100 uM,2
O=S(=O)(NCCNC/C=C/c1ccc(Br)cc1)c1cccc2cnccc12 [H-89],"Inhibition level, STK16",[1]; inhibitor 100 uM,2
same,"Inhibition level, STK13",[2],1
same,"Inhibition level, MAP3K7",[3]; inhibitor 100 uM,2
same,"Inhibition level, PRKCD",[4]; inhibitor 100 uM,1
same,"Inhibition level, DYRK1A",[5]; inhibitor 100 uM,2
same,"Inhibition level, IRAK3",[6],0
same,"Inhibition level, DYRK2",[7]; inhibitor 100 uM,2
same,"Inhibition level, DAPK2",[8]; inhibitor 100 uM,2
same,"Inhibition level, MAP3K4",[9],1
same,"Inhibition level, RET",[10]; inhibitor 100 uM,0
CC(C)(C)n1nc(-c2ccc(Cl)cc2)c2c(N)ncnc21 [PP2],"Inhibition level, STK16",[1]; inhibitor 100 uM,2
same,"Inhibition level, STK13",[2],2
same,"Inhibition level, MAP3K7",[3]; inhibitor 100 uM,2
same,"Inhibition level, PRKCD",[4]; inhibitor 100 uM,0
same,"Inhibition level, DYRK1A",[5]; inhibitor 100 uM,1
same,"Inhibition level, IRAK3",[6],2
same,"Inhibition level, DYRK2",[7]; inhibitor 100 uM,2
same,"Inhibition level, DAPK2",[8]; inhibitor 100 uM,2
same,"Inhibition level, MAP3K4",[9],2
same,"Inhibition level, RET",[10]; inhibitor 100 uM,2
O=c1c(O)c(-c2ccc(O)c(O)c2)oc2cc(O)cc(O)c12 [Quercetin],"Inhibition level, STK16",[1]; inhibitor 100 uM,0
same,"Inhibition level, STK13",[2],2
same,"Inhibition level, PRKCD",[4]; inhibitor 100 uM,0
same,"Inhibition level, IRAK3",[6],0
same,"Inhibition level, DYRK2",[7]; inhibitor 100 uM,2
same,"Inhibition level, DAPK2",[8]; inhibitor 100 uM,0
same,"Inhibition level, MAP3K4",[9],0
O=c1c(-c2ccc(O)cc2)coc2cc(O)cc(O)c12 [Genistein],"Inhibition level, STK16",[1]; Genistein <3.7 mM,0
same,"Inhibition level, STK16",[1]; inhibitor 100 uM,0
same,"Inhibition level, STK13",[2],2
same,"Inhibition level, MAP3K7",[3]; Genistein <3.7 mM,0
same,"Inhibition level, MAP3K7",[3]; inhibitor 100 uM,1
same,"Inhibition level, PRKCD","[4]; Genistein, conc. not given",0
same,"Inhibition level, PRKCD",[4]; inhibitor 100 uM,0
same,"Inhibition level, DYRK1A",[5]; Genistein <3.7 mM,1
same,"Inhibition level, DYRK1A",[5]; inhibitor 100 uM,2
same,"Inhibition level, IRAK3",[6],2
same,"Inhibition level, DYRK2","[7]; Genistein, conc. not given",1
same,"Inhibition level, DYRK2",[7]; inhibitor 100 uM,2
same,"Inhibition level, DAPK2","[8]; Genistein, conc. not given",0
same,"Inhibition level, DAPK2",[8]; inhibitor 100 uM,2
same,"Inhibition level, MAP3K4",[9],1
same,"Inhibition level, RET","[10]; Genistein, conc. not given",0
same,"Inhibition level, RET",[10]; inhibitor 100 uM,2
Cn1cc(C2=C(c3cn(CCCSC(=N)N)c4ccccc34)C(=O)NC2=O)c2ccccc21 [Ro-31-8220],"Inhibition level, STK16",[1]; Ro-31-8220 90 uM,2
same,"Inhibition level, STK16",[1]; inhibitor 100 uM,1
same,"Inhibition level, STK13",[2],2
same,"Inhibition level, MAP3K7",[3]; Ro-31-8220 90 uM,2
same,"Inhibition level, MAP3K7",[3]; inhibitor 100 uM,2
same,"Inhibition level, PRKCD","[4]; Ro-31-8220, conc. not given",2
same,"Inhibition level, PRKCD",[4]; inhibitor 100 uM,0
same,"Inhibition level, DYRK1A",[5]; Ro-31-8220 90 uM,0
same,"Inhibition level, DYRK1A",[5]; inhibitor 100 uM,2
same,"Inhibition level, IRAK3",[6],2
same,"Inhibition level, DYRK2","[7]; Ro-31-8220, conc. not given",0
same,"Inhibition level, DYRK2",[7]; inhibitor 100 uM,2
same,"Inhibition level, DAPK2","[8]; Ro-31-8220, conc. not given",2
same,"Inhibition level, DAPK2",[8]; inhibitor 100 uM,2
same,"Inhibition level, MAP3K4",[9],2
same,"Inhibition level, RET","[10]; Ro-31-8220, conc. not given",2
same,"Inhibition level, RET",[10]; inhibitor 100 uM,0
